Key:
IDO1 [1] = molecular target: T1, IDO1 (Homo sapiens, UniProt P14902); assay: IDO1 Cellular Assay in HeLa Cells Stimulated with IFNγ; type: cell-based; settings: IFNγ 100 ng/mL, 300 uM L-tryptophan, about 48 hours, fluorescence readout, read-out: IDO1 HELA Cell Assay, IC50
IDO1 [2] = molecular target: T1, IDO1; assay: IDO1 Human Whole Blood Assay; type: cell-based; parameters: Human whole blood was drawn in sodium heparin coated tubes from healthy internal donors; from tissue; host or cells: human whole blood from healthy donors, stimulated with LPS and IFNγ; settings: LPS and IFNγ 100 ng/mL, overnight (18 h), kynurenine by LC/MS/MS
Method: IDO1 Human Whole Blood Assay
Compounds to be tested were serially diluted in ten 3-fold steps in DMSO starting from 10 mM. 3 μL of compound dilutions or DMSO alone were then dispensed from the dilution plate into a polypropylene 96-well assay plate containing 97 μL of RPMI medium using an Echo 555 acoustic liquid handler (Labcyte). LPS and IFNγ was prepared in RPMI medium to a 10× of final conc. (1000 ng/mL), final concentration is 100 ng/mL.
Human whole blood was drawn in sodium heparin coated tubes from healthy internal donors. 240 μL of blood was transferred to each of the wells of a v-bottom 96 well plate. 30 μL of compound was transferred from intermediate dilution plate, and incubated for 15 min. 30 μL from stimulants was then transferred to blood and mixed thoroughly. Plate was covered with breathable membrane and incubated at 37° C. for overnight (18 h).
On day 2, isotope labeled standard solutions of kynurenine and tryptophan was made in water at 10× concentration and 30 μL was added to the blood at 3 μM final concentration. The assay plates were centrifuged at 300×G for 10 min with no brake to separate plasma from red blood cells. 60 μL of plasma samples was removed without disturbing red blood cells. Plasma was diluted with RPMI in 1:1 ratio and proteins were precipitated out with two volumes of Acetonitrile. The plates were centrifuged at 4000×G for 60 min. 20 μL of supernatant was carefully transferred to a 384 well plate containing 40 μL of 0.1% formic acid in water and analyzed by LC/MS/MS.
LC/MS/MS analyses were performed using Thermo Fisher's LX4-TSQ Quantum Ultra system. This system consists of four Agilent binary high-performance liquid chromatography (HPLC) pumps and a TSQ Quantum Ultra triple quadrupole MS/MS instrument. For each sample, 5 μL were injected onto an Atlantis T3 column (2.1 mm×150 mm, 3 μm particle size) from Waters. The mobile phase gradient pumped at 0.8 mL/min was used to elute the analytes from the column at 25 EC. The elution started at 0% B increasing linearly to 25% B at 6.5 min, holding at 25% for 1 min, re-equilibrating to 10 min. Mobile phase A consisted of 0.1% formic acid in water. Mobile phase B consisted of 0.1% of formic acid in acetonitrile. Data were acquired in positive mode using a HESI interface. The operational parameters for the TSQ Quantum Ultra instrument were a spray voltage of 4000 V, capillary temperature of 380° C., vaporizer temperature 400° C., shealth gas 60 arbitrary units, Aux gas 20 arbitrary units, tube lens 85 and collision gas 1.2 mTorr. SRM chromatograms of kynurenine (Qi: 209.2>Q3:94.0) and internal standard (Qi: 215.3>Q3:98.2) were collected for 90 sec. The peak area was integrated by Xcalibur Quan software. The ratios between the kynurenine generated in the reaction and 2D6-Kynurenine spiked-in internal standard were used to generate percentage inhibition and IC50 values. Compounds were titrated and IC50's were calculated by 4 parameter sigmoidal curve fitting formula.
The biological activity data of selective compounds using the IDO1 human whole blood assay described above are summarized in the table below.

T1 sequence (P14902 whole entry): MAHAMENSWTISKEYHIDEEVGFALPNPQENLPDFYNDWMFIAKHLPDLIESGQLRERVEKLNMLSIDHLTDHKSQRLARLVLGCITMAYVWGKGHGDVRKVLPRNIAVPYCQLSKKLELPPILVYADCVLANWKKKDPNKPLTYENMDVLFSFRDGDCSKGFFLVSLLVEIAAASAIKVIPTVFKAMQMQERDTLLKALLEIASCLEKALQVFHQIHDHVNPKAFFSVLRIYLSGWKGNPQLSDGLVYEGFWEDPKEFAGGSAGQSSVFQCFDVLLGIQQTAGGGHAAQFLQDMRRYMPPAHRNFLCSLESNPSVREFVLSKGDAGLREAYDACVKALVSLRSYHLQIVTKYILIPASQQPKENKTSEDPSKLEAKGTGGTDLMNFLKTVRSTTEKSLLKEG

Row | Compound | IC50 (IDO1 [1]) | IC50 (IDO1 [2])
1 | Cc1cccc(C2CCN(C(=O)Cn3nc(C(=O)N4CC[C@H](O)[C@@H](F)C4)c4c3CCC4)CC2)c1C [Example 37, 1-(4-(2,3-dimethylphenyl)piperidin-1-yl)-2-(3-((3S,4S)-3-fluoro-4-hydroxypiperidine-1-carbonyl)-5,6-dihydrocyclopenta[c]pyrazol-1(4H)-yl)ethanone] | 1.8 nM | 84.9 nM
2 | Cc1c(Cl)cccc1C1CCN(C(=O)Cn2nc(C(=O)N3C[C@@H](C)O[C@@H](C)C3)c3c2CCC3)CC1 [Example 82, 1-[4-(3-chloro-2-methylphenyl)piperidin-1-yl]-2-{3-[(2R,6S)-2,6-dimethylmorpholine-4-carbonyl]-5,6-dihydrocyclopenta[c]pyrazol-1(4H)-yl}ethan-1-one] | 3.5 nM | 435 nM
3 | Cc1cccc(C2CCN(C(=O)Cn3nc(C(=O)N4CC[C@H](O)[C@@H](C)C4)c4c3C[C@H]3C[C@@H]43)CC2)c1C [Example 21, 1-[4-(2,3-dimethylphenyl)piperidin-1-yl]-2-{(3bR,4aR)-3-[(3S,4S)-4-hydroxy-3-methylpiperidine-1-carbonyl]-3b,4,4a,5-tetrahydro-1H-cyclopropa[3,4]cyclopenta[1,2-c]pyrazol-1-yl}ethan-1-one] | 0.9 nM | 328 nM
4 | Cc1cccc(C2CCN(C(=O)Cn3nc(C(=O)N4C[C@@H](C)O[C@@H](C)C4)c4c3CCC4)CC2)c1C [Example 64, 2-(3-((2S,6R)-2,6-dimethylmorpholine-4-carbonyl)-5,6-dihydrocyclopenta [c]pyrazol-1(4H)-yl)-1-(4-(2,3-dimethylphenyl)piperidin-1-yl) ethanone] | 1.1 nM | 296 nM

Reference: patent US12091405B2, “Substituted pyrazole compounds as indoleamine 2,3-dioxygenase inhibitors” (Merck Sharp & Dohme LLC, priority 2018, dated 2024)
